In ChEMBL document CHEMBL1150406, “Novel triterpenoid from Citrus aurantium L. possesses chemopreventive properties against human colon cancer cells” (Bioorg Med Chem, 2008):
Active and inactive are the calls of the source. No cut-off for these calls is given here.

How the values were obtained:
HT-29 [1] = experiment: Cytotoxicity against human HT29 cells at 2.5 uM after 48 hrs by MTT assay; assay type: functional, cell-based
HT-29 [2] = experiment: Cell cycle arrest in human HT29 cells by accumulation at G2/M phase at 5 uM after 48 hrs by flow cytometry; assay type: functional
HT-29 [3] = experiment: Cell cycle arrest in human HT29 cells by accumulation at G0/G1 phase at 10 uM after 48 hrs by flow cytometry; assay type: functional
HT-29 [4] = experiment: Cell cycle arrest in human HT29 cells by accumulation at G0/G1 phase at 5 uM after 48 hrs by flow cytometry; assay type: functional
HT-29 [5] = experiment: Cell cycle arrest in human HT29 cells by accumulation at G2/M phase at 10 uM after 48 hrs by flow cytometry; assay type: functional
HT-29 [6] = experiment: Cell cycle arrest in human HT29 cells by accumulation at S phase at 5 uM after 48 hrs by flow cytometry; assay type: functional
HT-29 [7] = experiment: Cytotoxicity against human HT29 cells at 5 uM after 72 hrs by MTT assay; assay type: functional
HT-29 [8] = experiment: Cell cycle arrest in human HT29 cells assessed as background aggregates and debris at 5 uM after 48 hrs by flow cytometry; assay type: functional
[9] = Growth inhibition of monkey COS1 cells by flow cytometry; assay type: cell-based; details: cos-1
HT-29 [10] = experiment: Induction of apoptosis in human HT29 cells at 10 uM by nuclear staining method; assay type: functional, cell-based
HT-29 [11] = experiment: Cell cycle arrest in human HT29 cells assessed as background aggregates and debris at 10 uM after 48 hrs by flow cytometry; assay type: functional
HT-29 [12] = experiment: Cell cycle arrest in human HT29 cells by accumulation at S phase at 10 uM after 48 hrs by flow cytometry; assay type: functional
HT-29 [13] = experiment: Cytotoxicity against human HT29 cells at 10 uM after 24 hrs by MTT assay; assay type: functional, cell-based
HT-29 [14] = experiment: Cytotoxicity against human HT29 cells after 48 hrs by MTT assay; assay type: functional, cell-based

Structure (SMILES) | Activity (HT-29 [1]) | Activity (HT-29 [2]) | Activity (HT-29 [3]) | Activity (HT-29 [4]) | Activity (HT-29 [5]) | Activity (HT-29 [6]) | Activity (HT-29 [7]) | Activity (HT-29 [8]) | Activity [9] | Activity (HT-29 [10]) | Activity (HT-29 [11]) | Activity (HT-29 [12]) | Activity (HT-29 [13]) | Activity (HT-29 [14])
CC1(C)OC[C@@]2([C@@H](O)CC(=O)O)[C@H]3CC[C@@]4(C)[C@H](c5ccoc5)OC(=O)[C@H]5O[C@]54[C@]3(C)C(=O)C[C@@H]12 [ISOLIMONOIC ACID] | Active | 6.1% | 69.9% | 91% | 17.4% | 4% | 20% | 34.8% | Not Active | Active | 75.5% | 12.7% |  | 
CC(C)(O)[C@@H]1CC(=O)[C@]2(C)[C@H](CC[C@@]3(C)[C@H](C4=CC(O)OC4=O)OC(=O)[C@H]4O[C@]432)[C@]12COC(=O)C[C@@H]2O (stereo partly specified) [ICHANEXIC ACID] | Active | 8.7% | 70.2% | 91.3% | 23.8% | 4.1% | 20% | 42.9% | Not Active | Active | 75.1% | 6% | Active | Active
